Test results reported in patent publication US20260209297A1, “ANTIMICROBIAL PEPTIDES AND MODIFICATIONS THEREOF” (priority 2022, published 2026).
Values after ≈ are worked out from the molar mass of the structure shown. Positions of bridges follow the written chain, without caps; N, C: chain ends. Residues, ends and D or L forms follow the SMILES beside them.

Legend:
[1] = tested on: Fusarium graminearum PH-1; type: cell-based; conditions: for MIC against F. graminearum: F. graminearum PH-1, Example 7; for F. graminearum PH-1 MIC Day 1: Fusarium graminearum PH-1, 96-well, resazurin viability
Botrytis cinerea T-4 = conditions: Table 18

PD96.1.1: SEQ ID NO: 603 with N-terminal alanine; Thlaspi arvense wild-type defensin, expressed in Pichia pastoris (RMCESKSHEFKGFCTKWRICRDVCITEGFTDGGCHGVLRHCVCKKPCLLSN; N-terminal alanine added; Thlaspi arvense)
MIC against F. graminearum [1]: 0.75 µM
F. graminearum PH-1 MIC Day 1 [1]: 0.75 µM

CC[C@H](C)[C@@H]1NC(=O)[C@H](CCCNC(=N)N)NC(=O)[C@@H](NC(=O)[C@H](CCCNC(=N)N)NC(=O)CNC(=O)[C@@H](N)CO)CSSC[C@@H](C(N)=O)NC(=O)[C@H](CC(N)=O)NC(=O)[C@H](CCCCN)NC(=O)[C@H]([C@@H](C)O)NC(=O)[C@H](Cc2ccccc2)NC(=O)[C@H](Cc2ccc(O)cc2)NC(=O)[C@H](Cc2c[nH]c3ccccc23)NC(=O)[C@H](CCCNC(=N)N)NC(=O)[C@H](Cc2ccccc2)NC(=O)[C@H](CC(C)C)NC1=O [GMA1C_V3] (H-SGRCRILFRWYFTKNC-NH2; disulfide 4-16; N-terminus assumed)
MIC (μM) SFM (Botrytis cinerea T-4; SFM): 1.5 µM (≈ 3.07 µg/mL)
MIC (μM) (SFM + 2 mM CaCl2) (Botrytis cinerea T-4): 6 µM
MIC (μM) (SFM + 100 mM KCl) (Botrytis cinerea T-4): >12 µM
MIC (μM) (SFM + 100 mM NaCl) (Botrytis cinerea T-4): 3 µM

PD82.1.1: SEQ ID NO: 538 with N-terminal alanine; Pinus sylvestris wild-type defensin, expressed in Pichia pastoris (RTCLSKSHRFHGYCVRSSSCKEICQTERFLSGECRHTHLGNRRCFCEKPC; N-terminal alanine added; listed as Pinus sylvestris)
F. graminearum PH-1 MIC Day 1 [1]: 1.5 µM

PD92.1.1: SEQ ID NO: 583 with N-terminal alanine; Trifolium pratense wild-type defensin, expressed in Pichia pastoris (RKCESKRRWIYGNCLSDEKCASDCLVKGFLFGKCRGYDNRCYCKKPRC; N-terminal alanine added; Trifolium pratense)
F. graminearum PH-1 MIC Day 1 [1]: 3 µM

PD120.1.1: SEQ ID NO: 706 with N-terminal alanine; Setaria italica wild-type defensin, expressed in Pichia pastoris (DRCETHSRTYKGRCNNHNCWSICITEGNTGGFCKGTLLLKCMCTSEC; N-terminal alanine added; listed as Setaria italica)
F. graminearum PH-1 MIC Day 1 [1]: 12 µM

PD128.1.1: SEQ ID NO: 734 with N-terminal alanine; wild-type defensin-like protein, expressed in Pichia pastoris (RVCLRRSKTWTGFCGNTRGFDSQCKRWECALHGACHC; N-terminal alanine added; listed as Lepidium sativum)
F. graminearum PH-1 MIC Day 1 [1]: >12 µM

PD86.1.1: SEQ ID NO: 555 with N-terminal alanine; Eryanthe guttata wild-type defensin, expressed in Pichia pastoris (SLCETPSRYFNGICFSRRNCGAICEKEGFSSGRCKAFKCVCGKDC; N-terminal alanine added; listed as Eryanthe guttata)
F. graminearum PH-1 MIC Day 1 [1]: 6 µM

PD84.1.1: SEQ ID NO: 546 with N-terminal alanine; Striga asiatica wild-type defensin, expressed in Pichia pastoris (KICEYKSERFWGVCLSDIKCADVCKDESFESGDCQGLRRRCMCYNHC; N-terminal alanine added; listed as Striga asiatica)
F. graminearum PH-1 MIC Day 1 [1]: >12 µM

PD83.1.1: SEQ ID NO: 542 with N-terminal alanine; Eucalyptus grandis wild-type defensin, expressed in Pichia pastoris (RMCESQSHKFHGLCMSDRTCVVVCKEEDFDDGKCRGFRHRCFCRKPC; N-terminal alanine added; listed as Eucalyptus grandis)
F. graminearum PH-1 MIC Day 1 [1]: >12 µM

PD95.1.1: SEQ ID NO: 598 with N-terminal alanine; Mimulus guttatus wild-type defensin, expressed in Pichia pastoris (RHCESPSHRFKGICVRKSNCAAICQTEGFSSGKCRGFRSRCVCIKHC; N-terminal alanine added; listed as Mimulus guttatus)
MIC against F. graminearum [1]: 0.75 µM
F. graminearum PH-1 MIC Day 1 [1]: 0.75 µM

PD123.1.1: SEQ ID NO: 719 with N-terminal alanine; Striga asiatica wild-type defensin, expressed in Pichia pastoris (RKCESKSQQFKGLCFIKANCAAVCRTEGFHSGHCRGFRRRCYCTKHC; N-terminal alanine added; listed as Striga asiatica)
F. graminearum PH-1 MIC Day 1 [1]: 6 µM

PD88.1.1: SEQ ID NO: 565 with N-terminal alanine; Fraxinus excelsior wild-type defensin, expressed in Pichia pastoris (KHCAKLSKGWHGFCAPHKCSRYCIHHEGAYDGACLKHHHSKHIGCYCYYRHC; N-terminal alanine added; Fraxinus excelsior)
F. graminearum PH-1 MIC Day 1 [1]: >12 µM

PD126.1.1: SEQ ID NO: 730 with N-terminal alanine; wild-type defensin-like protein, expressed in Pichia pastoris (KLCERRSKTWTGWCAKTSHCNKQCKDWERVEHGACHGEFLEKPVSAISNAHCKISF; N-terminal alanine added; listed as Prunus armeniaca)
F. graminearum PH-1 MIC Day 1 [1]: >12 µM

PD93.1.1: SEQ ID NO: 588 with N-terminal alanine; Fragaria vesca wild-type defensin, expressed in Pichia pastoris (KICEVPSKTFKGLCVKDRNCVVRCHSEGYGNGKCSHVRRQCMCLKICD; N-terminal alanine added; listed as Fragaria vesca)
F. graminearum PH-1 MIC Day 1 [1]: >12 µM

PD121.1.1: SEQ ID NO: 711 with N-terminal alanine; Setaria italica wild-type defensin, expressed in Pichia pastoris (RHCLSQSHHFKGLCLSSSNCANVCRVERFPDGECQTTAGTRKCFCKRIC; N-terminal alanine added; listed as Setaria italica)
F. graminearum PH-1 MIC Day 1 [1]: 1.5 µM

PD99.1.1: SEQ ID NO: 616 with N-terminal alanine; Theobroma cacao wild-type defensin, expressed in Pichia pastoris (KLCQKRSKTWTGPCIKTKNCDHQCRKWEKAQHGACHWQWPGFACFCYVNC; N-terminal alanine added; Theobroma cacao)
MIC against F. graminearum [1]: 0.75 µM
F. graminearum PH-1 MIC Day 1 [1]: 0.75 µM

PD89.1.2: SEQ ID NO: 569 with N-terminal alanine; Crambe maritima wild-type defensin, expressed in Pichia pastoris (KLCRKPSGTWSGLCANSDSCRKQCINLEKAKDGSCKYKFPAHKCFCYY; N-terminal alanine added; listed as Crambe maritima)
F. graminearum PH-1 MIC Day 1 [1]: 12 µM

PD125.1.1: SEQ ID NO: 728 with N-terminal alanine; wild-type defensin-like protein, expressed in Pichia pastoris (VICPLESKRSKTWSGVCAQSKNCDKQCKTWERAKHGACHATYGKVLGVKACMHAGNK; N-terminal alanine added; listed as Prunus armeniaca)
F. graminearum PH-1 MIC Day 1 [1]: 8 µM

PD124.1.1: SEQ ID NO: 723 with N-terminal alanine; Rubus argutus wild-type defensin, expressed in Pichia pastoris (RICEVPSKTFIGLCFKDTNCIVRCRSEGYGYGKCSHFRRRCRCFKPCP; N-terminal alanine added; listed as Rubus argutus)
F. graminearum PH-1 MIC Day 1 [1]: 2 µM

PD85.1.1: SEQ ID NO: 551 with N-terminal alanine; Panax ginseng wild-type defensin, expressed in Pichia pastoris (KLCEKASLTWSGKCGNTQNCDKQCQNWESAKHGACHKRPTWKCFCYSDC; N-terminal alanine added; Panax ginseng)
F. graminearum PH-1 MIC Day 1 [1]: >12 µM

PD94.1.1: SEQ ID NO: 593 with N-terminal alanine; Solanum lycopersicum wild-type defensin, expressed in Pichia pastoris (KLCQYHSETFHGVCVTGNNCNRHCQRENFEGGRCHGIRHYRCVCYRTC; N-terminal alanine added; listed as Solanum lycopersicum)
F. graminearum PH-1 MIC Day 1 [1]: >12 µM

PD87.1.1: SEQ ID NO: 560 with N-terminal alanine; Raphanus sativus wild-type defensin, expressed in Pichia pastoris (KLCQRPSGTWSGVCGNNNACKNQCIRLEKARHGSCNYVFPAHKCICYFPC; N-terminal alanine added; listed as Raphanus sativus)
MIC against F. graminearum [1]: 0.75 µM
F. graminearum PH-1 MIC Day 1 [1]: 0.75 µM

B1: PD97.1.1: SEQ ID NO: 608 with N-terminal alanine; Rubus chingii wild-type defensin, expressed in Pichia pastoris (protein, listed as Rubus chingii)
chain: GACPLVSKRSKTWSGFCGSSNNCNKQCRSWESAQHGACHNTYKTVLGVKVISGRACFCYFCKKHT
modifications: N-terminal alanine added
notes: Rubus chingii wild-type defensin, expressed in Pichia pastoris
F. graminearum PH-1 MIC Day 1 [1]: 1.5 µM

B2: PD127.1.1: SEQ ID NO: 732 with N-terminal alanine; wild-type defensin-like protein, expressed in Pichia pastoris (protein, listed as Potentilla micrantha)
chain: GACPLVQKRSKTWSGFCGSSNNCDKQCRTWEKAKHGACHATGDLKGTPRLKLRSCHARRSKDH
modifications: N-terminal alanine added
notes: wild-type defensin-like protein, expressed in Pichia pastoris
F. graminearum PH-1 MIC Day 1 [1]: >12 µM

B3: PD91.1.1: SEQ ID NO: 578 with N-terminal alanine; Setaria viridis wild-type defensin, expressed in Pichia pastoris (protein, listed as Setaria viridis)
chain: AYMCTTQNRFFHGRCVNNLNCASSCVHGRLGTGGHCATRKRSAADPGVDIDWVWNRRICVCVFQC
modifications: N-terminal alanine added
notes: Setaria viridis wild-type defensin, expressed in Pichia pastoris
F. graminearum PH-1 MIC Day 1 [1]: >12 µM
